Measurements taken from US5824657A, “Aminoacyl sulfamides for the treatment of hyperproliferative disorders” (priority 1997, dated 1998).
Like-named read-outs stand apart in the source and are kept apart here.

Key:
[1] = tested on: aminoacyl-tRNA synthetases (aaRS) isolated from HeLa cells; test: IC50 determination, aaRS charging and trichloroacetic acid precipitation assay, aaRS partially purified from HeLa cell extracts; type: biochemical; conditions: preincubation 20 minutes at 25° C., reaction 5-20 minutes
Protocol: IC50 determinations for the aminoacyl-tRNA synthetases (aaRS) isolated from HeLa cells were carried out using a modification of the aaRS charging and trichloroacetic acid precipitation assay described previously (see examples: D. Kern et. al., Biochemie, 61, 1257-1272 (1979) and J. Gilbart et. al. Antimicrobial Agents and Chemotherapy, 37(1), 32-38 (1993)). […] For practical purposes, the minimal acceptable value is approximately 2000 cpm per 10 minute reaction. The final dilution of the HeLa extract in the assays for the aaRS enzymes varies from 50 to 1200-fold.
Test compounds were typically present as serial dilutions in concentrations ranging from 0.35 nM to 35 μM. Test compound solutions were prepared by dissolving test compounds in 100% dimethyl sulfoxide and diluting to the final concentration with 50 mM HEPES, pH 7.5. IC50 determinations were typically performed in duplicate with each experiment containing 4-8 concentrations of test compound and with duplicate controls containing no inhibitor.
The reaction was incubated at 25° C. for 5-20 minutes. At specified time points a 15 microliter aliquot was removed and added to a well of a Millipore filtration plate (Multiscreen-FB, MAFB NOB 10) containing 100 microliters of cold 5% (wt/vol) trichloroacetic acid. Trichloroacitic acid precipitable material was collected by filtration on a Millipore Multiscreen filtration station, washed twice with cold 5% trichloroacetic acid, twice with water, and dried. Plates were typically allowed to air dry for several hours or baked at 50° C. in a vacuum oven for 30 minutes. The radioactivity on the dried plates was quantitated by the addition of Packard Microscint-20 to the wells and counting with a Packard TopCount scintillation counter.
Inhibitor activity typically was reported as a percentage of the control aaRS activity. […] The IC50 (in nM, Hela Cells) values of representative compounds of the present invention are listed in column 5 of Table I.

[2] = tested on: human epidermoid carcinoma cell line A-253 (ATCC HTB 41); test: MTT assay, human epidermoid carcinoma cell line; type: cell-based; conditions: read-out: IC50 Human Epidermoid Carcinoma Cells ATCC # HTB 41
Protocol: The MTT assay was used as a model to measure the inhibitory effects of the compounds of Formula I. The MTT assay is considered the most convenient modern assay for the determination of cell viability and cell proliferation. An MTT assay kit is commercially available (Chemicon International Inc., Temecula, Calif.). The MTT assay was performed according to manufacturer's instructions as outlined below.
A human epidermoid carcinoma cell line, designated as A-253 (ATCC HTB 41), was obtained in frozen vials from the American Type Culture Collection, Rockville, Md. Monolayer cultures were established from the vials by growth in RPMI 1640 medium supplemented with 10% fetal bovine serum (heat-inactivated), 2 mM L-glutamine, and pen-strep (100 units/ml; 100 μg/ml). The cultures were incubated at 37±1.5° C. in 5±1% CO2 in humidified air and were passaged weekly to avoid overgrowth. The laboratory cultures used for the present study were at passage seven after receipt of frozen stocks from ATCC.
Compounds of Formula I in powder form were stored at room temperature in plastic micro centrifuge tubes. Each tube was placed in a plastic bag containing desiccant. Each test compound was prepared as a 2 mg/ml solution in RPMI 1640 medium (non-supplemented) on the day of use, and the appropriate dilutions were prepared with the same vehicle.
Each compound was handled by sterile techniques in Class II, Type B biological safety cabinets.
The reference control compound was methotrexate at concentrations of 0.5 μg/ml to 50 μg/ml. A 1 mg/ml stock was prepared on the day of dosing and diluted to the appropriate concentrations using RPMI 1640 medium (non-supplemented).
A blank control was included in the MTT assay in order to determine the absorbance associated with the absence of any cells. This control was RPMI 1640 culture medium carried through the same procedures used to culture the cells in the microwell plates and to conduct the MTT assay color development. The microwell plate reader was zeroed against the blank control prior to recording the absorbance in the test wells.
Laboratory monolayer cultures of A-253 cells were trypsinized and seeded at a concentration of 24,000 cells in 0.05 ml of complete RPMI 1640 culture medium per well in 96-well plates. Eight wells in a column were seeded for each test condition. The blank control was prepared by adding 0.05 ml of culture medium (no cells) to 8 wells in the first column of each plate. A separate microwell plate was used for each compound of Formula I.
The test compound treatments were initiated immediately after seeding the cells by adding 0.05 ml of treatment medium to each microwell. Ten different test compound concentrations were prepared in culture medium (without serum), and each concentration was applied to a volume of eight wells on the appropriate plate. The final concentrations in the wells were 1000, 500, 250, 100, 50, 25, 10, 5, 2.5, and 1 μg/ml.
An untreated (zero-dose) condition was included as a column of 8 wells on each plate. The zero-dose and blank control wells received 0.05 ml of culture medium (without serum). The microwell plates were placed in an incubator at 37±1.5° C. in 5% CO2 in humidified air for an exposure period of 72±0.5 hours.
After the exposure period, 0.1 ml of MTT dye solution (0.5 mg/ml in serum free RPMI 1640 medium) was added to each micowell. The cultures were returned to the incubator for 2±0.1 hours. Then the medium was removed from each well and placed into a clean microwell plate for temporary storage. A volume of 0.1 ml of color development solution (Solution C, isopropanol with 0.04M HCl, Chemicon MTT Assay kit, Chemicon International Inc., Temecula, Calif.) was added to each new microwell. The contents were carefully mixed and allowed to sit at room temperature for approximately 1 hour. The medium that was saved from each microwell then was pipetted back into the well from which it originally came. […]

[3] = tested on: Gram positive bacterial pathogens such as Staphylococcus aureus; conditions: cited from earlier work
[4] = tested on: isoleucyl-tRNA synthetase; conditions: cited from earlier work
[5] = tested on: normal human skin fibroblasts cell line ATCC CRL 1501; test: MTT assay, normal skin fibroblasts; type: cell-based; conditions: Skin fibroblast, similar manner to HTB 41 assay
Protocol: The MTT assay was used as a model to measure the inhibitory effects of the compounds of Formula I. The MTT assay is considered the most convenient modern assay for the determination of cell viability and cell proliferation. […] The MTT assay was performed according to manufacturer's instructions as outlined below.
The cultures were returned to the incubator for 2±0.1 hours. Then the medium was removed from each well and placed into a clean microwell plate for temporary storage. A volume of 0.1 ml of color development solution (Solution C, isopropanol with 0.04M HCl, Chemicon MTT Assay kit, Chemicon International Inc., Temecula, Calif.) was added to each new microwell. […] The absorbance at 540 nm wavelength was determined in a microwell plate reader within two hours of the final preparation of the plates.
The absorbance at 540 nm was recorded for each well by the microwell plate reader after the instrument was zeroed against the blank controls for each plate. The mean absorbance for each test condition was calculated and compared to the mean absorbance for the zero-dose wells in order to obtain percent values. […]

[6] = A253, MTT assay, exposure 72 hours, plot extended by eye for compounds active at lowest dose

SMILES | IC50 [1] [nM] | IC50 [2, 6] [nM] | also measured
CC(C)[C@H](N)C(=O)NS(=O)(=O)NC[C@H]1O[C@@H](n2cnc3c(N)ncnc32)[C@H](O)[C@@H]1O [II] | 27 | 4950 | 
CC(=CC(=O)OCCCCCCCCC(=O)O)CC1OCC(CC2OC2C(C)C(C)O)C(O)C1O (stereo not drawn) [Pseudomonic acid A] |  |  | inhibition of protein synthesis and growth [3]: inhibition of protein synthesis, followed by growth inhibition; inhibition of isoleucyl adenylate formation [4]: inhibits isoleucyl adenylate formation
CSCC[C@H](N)C(=O)NS(=O)(=O)NC[C@H]1O[C@@H](n2cnc3c(N)ncnc32)[C@H](O)[C@@H]1O [IV] | 3 | 1050 | 
C[C@@H](O)[C@H](N)C(=O)NS(=O)(=O)NC[C@H]1O[C@@H](n2cnc3c(N)ncnc32)[C@H](O)[C@@H]1O [XVIII] | 40 | 9630 | 
Nc1ncnc2c1ncn2[C@@H]1O[C@H](CNS(=O)(=O)NC(=O)[C@@H](N)Cc2c[nH]cn2)[C@@H](O)[C@H]1O [XIII] | 2 | 2690 | 
CC[C@H](C)[C@H](N)C(=O)NS(=O)(=O)NC[C@H]1O[C@@H](n2cnc3c(N)ncnc32)[C@H](O)[C@@H]1O [I] | 0.9 | 3050 | 
Nc1ncnc2c1ncn2[C@@H]1O[C@H](CNS(=O)(=O)NC(=O)[C@@H](N)CC(=O)O)[C@@H](O)[C@H]1O [VIII] | 174 | 5000 | 
Nc1ncnc2c1ncn2[C@@H]1O[C@H](CNS(=O)(=O)NC(=O)[C@@H]2CCCN2)[C@@H](O)[C@H]1O [XV] | 1 | 900 | 
Nc1ncnc2c1ncn2[C@@H]1O[C@H](CNS(=O)(=O)NC(=O)[C@@H](N)CCC(=O)O)[C@@H](O)[C@H]1O [XII] |  | 10500 | 
CN(Cc1cnc2nc(N)nc(N)c2n1)c1ccc(C(=O)N[C@@H](CCC(=O)O)C(=O)O)cc1 [Methotrexate, reference compound] |  |  | IC50 ([2]; A253, 72 h): 40 nM
N=C(N)NCCC[C@H](N)C(=O)NS(=O)(=O)NC[C@H]1O[C@@H](n2cnc3c(N)ncnc32)[C@H](O)[C@@H]1O [XVII] | 14 | 3990 | 
NCC(=O)NS(=O)(=O)NC[C@H]1O[C@@H](n2cnc3c(N)ncnc32)[C@H](O)[C@@H]1O [IX] | 50 | 1490 | 
CC(C)C[C@H](N)C(=O)NS(=O)(=O)NC[C@H]1O[C@@H](n2cnc3c(N)ncnc32)[C@H](O)[C@@H]1O [III] | 0.5 | 1370 | IC50 [5]: 13000 nM
C[C@H](N)C(=O)NS(=O)(=O)NC[C@H]1O[C@@H](n2cnc3c(N)ncnc32)[C@H](O)[C@@H]1O [VII] | 22 | 1440 | 
NCCCC[C@H](N)C(=O)NS(=O)(=O)NC[C@H]1O[C@@H](n2cnc3c(N)ncnc32)[C@H](O)[C@@H]1O [Compound XI] | 8 | 2530 | 
Nc1ncnc2c1ncn2[C@@H]1O[C@H](CNS(=O)(=O)NC(=O)[C@@H](N)Cc2ccc(O)cc2)[C@@H](O)[C@H]1O [V] | 17 | 790 | 
NC(=O)CC[C@H](N)C(=O)NS(=O)(=O)NC[C@H]1O[C@@H](n2cnc3c(N)ncnc32)[C@H](O)[C@@H]1O [XVI] | 400 | 3590 | 
Nc1ncnc2c1ncn2[C@@H]1O[C@H](CNS(=O)(=O)NC(=O)[C@@H](N)Cc2c[nH]c3ccccc23)[C@@H](O)[C@H]1O [Compound X, 5'-deoxy-adenosine 5'-N-(N-L-tryptophanyl)sulfamide] | 300 | 530 | IC50 [5]: 80 nM
Nc1ncnc2c1ncn2[C@@H]1O[C@H](CNS(=O)(=O)NC(=O)[C@@H](N)CO)[C@@H](O)[C@H]1O [VI, 5'-deoxy-adenosine 5'-N-(N-L-seryl)sulfamide] | 140 | 9250 | 
CC1=C(/C=C/C(C)=C/C=C/C(C)=C/C(=O)O)C(C)(C)CCC1 [Retinoic acid, reference compound] |  |  | IC50 ([2]; A253, 72 h): 266000 nM
